{"source": "patent US12305217B2", "about": "“Ex vivo protease activity detection for disease detection/diagnostic, staging, monitoring and treatment” (Sunbird Bio, Inc., priority 2020, dated 2025)", "key": {"[1]": {"test_system": "NASH-related protease activity in K2EDTA plasma (cathepsin L)", "test": "Inhibitor profiling of Probe #102 cleavage in healthy and NASH plasma", "type": "biochemical, mice", "conditions": "for effect of inhibitor on Probe #102 signal: NASH and healthy plasma", "experimental": "For this experiment, all plasma samples were prepared individually and diluted 1/10e in PBS with inhibitor added directly to the samples. Inhibitor was prepared at 15× concentration to final. Substrates were diluted in DI water at 18 uM, such that the final concentration on the plate would be 6 uM. All samples were prepared such that their last dilution on the plate would not affect the desired final concentration. 10 ul of each individual sample was pipetted into their corresponding wells, and the plate was then spun down in the centrifuge at 1500 RPM for 30 seconds to coat the bottom of each well with the sample. 5 ul of the 18 uM substrate solution was pipetted into each well being used on a 384 well plate, and then the plate was spun down in the centrifuge at 1500 rpm for 30 seconds. The plate was placed immediately in the plate reader at 37° C. for a 30-minute-long fluorescence kinetic read at 485/535 extended gain.\nTo assess the proteolytic cleavage pattern of Probe #102, samples were tested using a pool of broad inhibitors for serine, cysteine, threonine, MMP and aspartic protease family members (broad inhibitor) to assess general protease activity, AEBSF for serine proteases, E64 for cysteine proteases, CTSi for broad cathepsin inhibition of cathepsins L, S, K and B, or specific inhibitors for cathepsin K (L00625), for cathepsin L (SID) or cathepsin B (CA074)."}, "[2]": {"test_system": "carboxylesterase 1, phospholipase A2 and lipoprotein lipase", "test": "Spiked recombinant enzymes in human plasma with resorufin oleate as substrate", "type": "biochemical"}, "[3]": {"test_system": "proteases in mouse plasma (caspase activity)", "test": "Ex vivo probe cleavage in plasma of Jo2 fulminant hepatitis mice", "type": "biochemical", "conditions": "mouse plasma 3 hours after Jo2 injection", "experimental": "Fulminant hepatitis is induced after injection intraperitoneal of monoclonal antibody anti-CD95 (Jo2, BD biosciences, 4 ug/animal), and mouse plasma samples were collected 3 hours after Jo2 injection."}, "[4]": {"test_system": "proteases in COVID plasma", "test": "Ex vivo probe cleavage in COVID and healthy K2EDTA and Lithium Heparin plasma", "type": "biochemical"}, "[5]": {"test_system": "cathepsin and/or MMP protease activities", "test": "Ex vivo probe cleavage in plasma of healthy, NASH regression and NASH progression mice", "type": "biochemical", "conditions": "K2EDTA plasma collected at 20 weeks", "from_the_text": "Plasma samples were collected from all animals at 20 weeks.\nThe probes showing the most differentiation in NASH were linked to cathepsin and/or MMP protease activities."}, "[6]": {"test_system": "COVID-related proteases in swab samples", "test": "Ex vivo probe cleavage in COVID positive and negative swab samples", "type": "biochemical"}, "[7]": {"target": "Granzyme B (Homo sapiens, UniProt P10144)", "sequence (P10144 21-247)": "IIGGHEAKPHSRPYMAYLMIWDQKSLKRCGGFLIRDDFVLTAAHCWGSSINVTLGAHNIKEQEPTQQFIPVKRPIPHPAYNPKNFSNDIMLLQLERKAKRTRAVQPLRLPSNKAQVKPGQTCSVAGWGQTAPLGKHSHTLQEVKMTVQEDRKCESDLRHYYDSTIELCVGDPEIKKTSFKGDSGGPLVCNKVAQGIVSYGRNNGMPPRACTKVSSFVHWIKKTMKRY", "test": "Inhibition experiments on Probe #647 signal in COVID swab samples", "conditions": "healthy and COVID samples"}, "[8]": {"conditions": "K2EDTA and Lithium Heparin plasma"}}, "note": "Square brackets hold non-standard residues; d marks the D form. Primed or numbered codes have the meaning given here. Ends that are not written are not given here. CPQ2″ = quencher on the Lys side chain; FAM = fluorescent reporter; PEG2′ = not defined here; CPQ2 = quencher", "data": [{"molecule": "NCCc1ccc(S(=O)(=O)F)cc1", "note": "[AEBSF]", "values": [{"measurement": "decrease of NASH signal", "setting": "[1]; Probe #102, 6 uM, NASH plasma", "result": 65, "unit": "%"}, {"measurement": "decrease of healthy signal", "setting": "[1]; Probe #102, 6 uM, healthy plasma", "result": 60, "unit": "%"}]}, {"molecule": "CCCNC(=O)[C@H]1O[C@@H]1C(=O)N[C@H](C(=O)N1CCC[C@H]1C(=O)O)[C@@H](C)CC", "note": "[CA074]", "values": [{"measurement": "effect of inhibitor on Probe #102 signal", "setting": "[1]", "result": "did not significantly decrease signal"}]}, {"molecule": "CC(C)C[C@H](NC(=O)[C@H]1O[C@@H]1C(=O)O)C(=O)NCCCCN=C(N)N", "note": "[Probe E64]", "values": [{"measurement": "effect of inhibitor on Probe #102 signal", "setting": "[1]", "result": "decreased NASH signal significantly"}]}, {"molecule": "CN1CCN(c2nc(-c3ccc(C(=O)NC4(C(=O)NCC#N)CCCCC4)cc3)cs2)CC1", "note": "[Probe L006235]", "values": [{"measurement": "effect of inhibitor on Probe #102 signal", "setting": "[1]", "result": "did not significantly decrease signal"}]}, {"molecule": "CCCC(=O)O", "note": "[butyrate]", "values": [{"measurement": "suitability as substrate for enzyme detection", "setting": "[2]", "result": "promising for detection of broad range of enzymes"}]}, {"molecule": "Probe #8: Caspase centric probe (chain 1 GVDVADGK; chain 2 KKGC; not fully specified; 5-FAM, CPQ2 quencher, PEG2; Description of Artificial Sequence: Synthetic probe; SITE 8 Lysine modified with a CPQ2 quencher; SITE 1 D-Lysine; SITE 2 D-Lysine)", "values": [{"measurement": "differentiation between healthy and Jo2 samples", "setting": "[3]", "result": "show contrast that is specific and sensitive to the Jo2 model"}]}, {"molecule": "Probe #12: Caspase centric probe (chain 1 GDEVDGK; chain 2 KKGC; not fully specified; 5-FAM, CPQ2 quencher, PEG2; Description of Artificial Sequence: Synthetic probe; SITE 7 Lysine modified with a CPQ2 quencher; SITE 1 D-Lysine; SITE 2 D-Lysine)", "values": [{"measurement": "differentiation between healthy and Jo2 samples", "setting": "[3]", "result": "show contrast that is specific and sensitive to the Jo2 model"}]}, {"molecule": "Probe #18: Neutrophil elastase substrate (GAAPVGK(CPQ2); not fully specified (N-terminus, C-terminus); also: 5-FAM, PEG2-kk-GC)", "values": [{"measurement": "differential cleavage between COVID and healthy samples", "setting": "[4]; [8]", "result": "demonstrated contrast in both sets"}]}, {"molecule": "Probe #84: Furin substrate (GRVKRGLAGK(CPQ2); not fully specified (N-terminus, C-terminus); also: 5-FAM, PEG2-kk-GC)", "values": [{"measurement": "differential cleavage between COVID and healthy samples", "setting": "[4]; [8]", "result": "demonstrated contrast in both sets"}]}, {"molecule": "Probe #102: a CTSL sensing probe; fluorescent reporter and quencher peptide probe (chain 1 {FAM}-GKPILFFRLKGK(CPQ2″)[PEG2′]; chain 2 [dK][dK]GC; not fully specified; printed as (FAM)-GKPILFFRLKG-K(CPQ2)-PEG2-kk-GC; also: FAM, place not given here)", "values": [{"measurement": "protease that the probe responds to", "setting": "[1]; individual cathepsin inhibitors, FIG. 30D-F", "result": "specifically responds to the activity of cathepsin L (CTSL)"}, {"measurement": "differentiation among healthy, regression and NASH samples", "setting": "[5]", "result": "can differentiate"}]}, {"molecule": "Probe #409: SARS CoV2 coronavirus substrate (SARS-COV2 3C protease) (GTSAVLQSGFRKGK(CPQ2); not fully specified (N-terminus, C-terminus); also: 5-FAM, PEG2-kk-GC)", "values": [{"measurement": "differential cleavage between COVID and healthy samples", "setting": "[4]; K2 EDTA samples", "result": "modest contrast"}]}, {"molecule": "Probe #428: probe used in NASH regression experiment (chain 1 {FAM}-GDRRKKLTQGK(CPQ2″)[PEG2′]; chain 2 [dK][dK]GC; not fully specified; printed as (FAM)-GDRRKKLTQG-K(CPQ2)-(PEG2)-; also: FAM, place not given here)", "values": [{"measurement": "differentiation among healthy, regression and NASH samples", "setting": "[5]", "result": "can differentiate"}]}, {"molecule": "Probe #462: MMP8 substrate (GKKAKRNALGK(CPQ2); not fully specified (N-terminus, C-terminus); also: FAM, PEG2-DLys-DLys-GC)", "values": [{"measurement": "differential cleavage between COVID and healthy samples", "setting": "[4]; [8]", "result": "demonstrated contrast in both sets"}]}, {"molecule": "Probe #492: ex vivo fluorescent probe used in NASH mouse plasma (chain 1 {FAM}-GQRANSIRVTWGK(CPQ2″)[PEG2′]; chain 2 [dK][dK]GC; not fully specified; printed as (FAM)-GQRANSIRVTWG-K(CPQ2)-(PEG2)-; also: FAM, place not given here)", "values": [{"measurement": "differentiation among healthy, regression and NASH samples", "setting": "[5]", "result": "can differentiate"}]}, {"molecule": "Probe #647: Caspase centric probe; signal measures Granzyme B activity (chain 1 GAIEPDSGGK(CPQ2); chain 2 [dK][dK]GC-NH2; not fully specified (N-terminus, C-terminus); also: 5FAM, PEG2, linkage of the two chains not given here)", "values": [{"measurement": "number of active samples", "setting": "[6]; COVID+ swab samples", "result": 7}, {"measurement": "number of active samples", "setting": "[6]; COVID- swab samples", "result": 1}, {"measurement": "difference between COVID+ and COVID- samples", "setting": "[6]; swabs in saline, p=0.029", "result": "significant differences"}, {"measurement": "differentiation between healthy and Jo2 samples", "setting": "[3]", "result": "show contrast that is specific and sensitive to the Jo2 model"}, {"measurement": "protease measured by the probe signal", "setting": "[7]", "result": "measures the activity of protease Granzyme B"}, {"measurement": "differentiation among healthy, regression and NASH samples", "setting": "[5]", "result": "can differentiate"}]}, {"molecule": "Resorufin oleate", "values": [{"measurement": "suitability as substrate for enzyme detection", "setting": "[2]", "result": "promising for detection of broad range of enzymes"}]}]}
